Results: publication PMC9250534, “Synthesis and direct assay of large macrocycle diversities by combinatorial late-stage modification at picomole scale” (Nature Communications, 2022)
Where “and” joins values, the source holds several entries; their conditions need not be identical. Equal entries are not always repeated. Where two headings read alike, the source gives them in different places.

How the values were obtained:
MDM2 [1] = target: T1, MDM2 (Homo sapiens, UniProt Q00987); experiment: MDM2 binding (FP53 displacement) by HPLC fractions of resynthesized hit reactions
T1 sequence (Q00987 whole entry): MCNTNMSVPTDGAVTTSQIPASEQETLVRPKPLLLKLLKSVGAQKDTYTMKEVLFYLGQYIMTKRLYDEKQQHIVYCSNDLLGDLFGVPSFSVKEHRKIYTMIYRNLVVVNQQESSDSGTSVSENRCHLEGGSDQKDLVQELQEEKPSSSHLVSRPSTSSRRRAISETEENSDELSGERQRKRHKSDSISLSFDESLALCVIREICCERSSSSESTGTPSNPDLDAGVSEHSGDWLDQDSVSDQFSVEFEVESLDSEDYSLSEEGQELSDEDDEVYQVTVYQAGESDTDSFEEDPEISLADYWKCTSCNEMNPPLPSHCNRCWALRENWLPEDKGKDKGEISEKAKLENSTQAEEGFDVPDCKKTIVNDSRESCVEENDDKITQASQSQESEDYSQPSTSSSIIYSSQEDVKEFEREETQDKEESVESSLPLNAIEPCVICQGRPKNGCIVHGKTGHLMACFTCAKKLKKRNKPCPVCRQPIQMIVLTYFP
Protocol: For hits from the MDM2 screen, reactions were performed in the same way but at a 50 nmol scale, and purified with the same method but a 10–80% gradient of solvent B and over 22 min. Fractions were lyophilized and dissolved in 40 μL of DMSO, 160 μL of water was added, and 5 μL of each fraction was transferred to a 384-well plate (Nunc, 264705), and 15 μL of premixed MDM2/FP53 peptide were added (final concentrations: 1.2 μM MDM2, 50 nM FP53, 5% DMSO).

MDM2 [2] = target: T1, MDM2; experiment: IC50 of purified MDM2-binding macrocycles, fluorescence polarization competition with FP53; conditions: for IC50: HPLC-purified macrocycle, FP displacement of fluorescent reporter peptide; for displacement of fluorescent peptide probe from MDM2: HPLC-purified macrocycles, FP competition; for anisotropy: replicates 1-3
Protocol: Volumes of 5 μL of purified macrocycles (20 mM in DMSO) were serial diluted two-fold in 100% DMSO in a low dead-volume ECHO source plate. Using acoustic droplet transfer, 150 nL of each dilution was transferred to a 384 well low volume polystyrene plate (Nunc, 264705). […] Fluorescence anisotropy was measured as described above. The percentage of bound inhibitor was calculated using the following equation4 %boundinhibitor=N−X/N−P×100 where N is the average anisotropy of the DMSO controls, X is the anisotropy value obtained for each well, and P is the average anisotropy of the unbound probe. The IC50s were determined by plotting the percent of bound inhibitor against the logarithm of the corresponding macrocycle concentration, and the curves were fitted in GraphPad Prism 6 as described above.

MDM2 [3] = target: T1, MDM2; experiment: Kd of MDM2 binders by surface plasmon resonance (SPR); type: binding; conditions: unlabeled macrocycles; triplicate
Protocol: Experiments were performed using a GE Healthcare Biacore 8 K instrument. MDM2 (10 μg/mL) was dissolved in 10 mM MES buffer (pH 6.0) and immobilized on three channels of a CM5 series S chip (Cytiva, 29104988) using EDC/NHS amine coupling conditions in running buffer (10 mM PBS pH 7.4, 150 mM NaCl, 3 mM KCl, and 0.005% v/v Tween 20). Typical immobilization level was 6000 to 7000 resonance units (RUs). The reference cell was treated the same way without MDM2. For the measurement of binding kinetics and dissociation constants, five serial dilutions (3-fold) of macrocycles plus a DMSO blank were prepared in running buffer (10 mM PBS pH 7.4, 150 mM NaCl, 3 mM KCl, and 0.005% v/v Tween 20, and 0.5% v/v DMSO) and analyzed in single cycle kinetics mode with contact and dissociation times of 120 s and 60 s, respectively. The data was collected and analyzed using the Biacore 8 K Control Software.
Supplementary Figure 14. Binding of macrocycles to MDM2 measured by SPR. a, Single-cycle SPR sensorgrams for fluorescein-labeled macrocycles, positive control nutlin-3a (not fluorescein labeled), and negative controls (thrombin inhibitors; not fluorescein labeled). RU, response unit. b, Single-cycle SPR sensorgrams for macrocycles M6, M7, M8 and M10 (not fluorescein-labeled), performed in triplicate.
(1 picture or pasted object on this page, not shown here)

MDM2 [4] = target: T1, MDM2; experiment: MDM2 binding screen of Libraries 3 and 4: displacement of fluorescent probe F-M8 at 750 nM macrocycle; conditions: 750 nM macrocycle; crude reaction; probe F-M8
Outline: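 Cyclic peptide scaffolds were acylated in DMSO with carboxylic acids (20 equiv.), HBTU and DABCO for 6 h at room temperature. Reactions were quenched overnight in 100 mM Tris-Cl pH 7.4, 0.01% Tween20. The fluorescein conjugate was also competed with nutlin-3a.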

[5] = prodrug; cited from earlier work
MDM2 [6] = conditions: MDM2 inhibitor in clinical studies; literature value, no reference given; read-out: HTRF IC50; cited from earlier work
[7] = HPLC Fraction 1 of acylation reaction
[8] = HPLC Fraction 2 of acylation reaction
[9] = HPLC Fraction 3 of acylation reaction
[10] = HPLC Fraction 4 of acylation reaction
[11] = HPLC Fraction 5 of acylation reaction
[12] = HPLC Fraction 6 of acylation reaction
[13] = HPLC Fraction 7 of acylation reaction
[14] = HPLC Fraction 8 of acylation reaction
[15] = HPLC Fraction 9 of acylation reaction
[16] = HPLC Fraction 10 of acylation reaction
[17] = HPLC Fraction 11 of acylation reaction
[18] = HPLC Fraction 12 of acylation reaction
[19] = HPLC Fraction 13 of acylation reaction
[20] = HPLC Fraction 14 of acylation reaction
[21] = HPLC Fraction 15 of acylation reaction
[22] = HPLC Fraction 16 of acylation reaction
[23] = HPLC Fraction 17 of acylation reaction
[24] = HPLC Fraction 18 of acylation reaction
[25] = HPLC Fraction 19 of acylation reaction
[26] = HPLC Fraction 20 of acylation reaction
[27] = average of 3 replicates, read-out: IC50 Average
[28] = replicate 1, read-out: IC50 Replicate 1
[29] = replicate 2, read-out: IC50 Replicate 2
[30] = replicate 3, read-out: IC50 Replicate 3

Structure (SMILES): O=C(NC[C@@H]1NC(=O)[C@H]2CCCN(C2)C(=O)CCSSCCNC(=O)[C@H](Cc2c[nH]c3ccccc23)NC1=O)c1ccc(Cl)s1 [M6]
- Fraction bound (fraction fluorescent probe displaced) (MDM2 [1]; [7]): -0.09
- Fraction bound (fraction fluorescent probe displaced) (MDM2 [1]; [8]): 0.04
- Fraction bound (fraction fluorescent probe displaced) (MDM2 [1]; [9]): 0.0145
- Fraction bound (fraction fluorescent probe displaced) (MDM2 [1]; [10]): 0.04
- Fraction bound (fraction fluorescent probe displaced) (MDM2 [1]; [11]): -0.0633
- Fraction bound (fraction fluorescent probe displaced) (MDM2 [1]; [12]): -0.0373
- Fraction bound (fraction fluorescent probe displaced) (MDM2 [1]; [13]): -0.0114
- Fraction bound (fraction fluorescent probe displaced) (MDM2 [1]; [14]): -0.0114
- Fraction bound (fraction fluorescent probe displaced) (MDM2 [1]; [15]): 0.0664
- Fraction bound (fraction fluorescent probe displaced) (MDM2 [1]; [16]): -0.0373
- Fraction bound (fraction fluorescent probe displaced) (MDM2 [1]; [17]): -0.09
- Fraction bound (fraction fluorescent probe displaced) (MDM2 [1]; [18]): -0.0633
- Fraction bound (fraction fluorescent probe displaced) (MDM2 [1]; [19]): -0.0373
- Fraction bound (fraction fluorescent probe displaced) (MDM2 [1]; [20]): 0.27
- Fraction bound (fraction fluorescent probe displaced) (MDM2 [1]; [21]): -0.22
- Fraction bound (fraction fluorescent probe displaced) (MDM2 [1]; [22]): -0.0114
- Fraction bound (fraction fluorescent probe displaced) (MDM2 [1]; [23]): 0.04
- Fraction bound (fraction fluorescent probe displaced) (MDM2 [1]; [24]): -0.0373
- Fraction bound (fraction fluorescent probe displaced) (MDM2 [1]; [25]): -0.24
- Fraction bound (fraction fluorescent probe displaced) (MDM2 [1]; [26]): -0.0633
- IC50 (MDM2 [2]; [27]): 2400 nM
- IC50 (MDM2 [2]; [28]): 2600 nM
- IC50 (MDM2 [2]; [29]): 1900 nM
- IC50 (MDM2 [2]; [30]): 2600 nM
- displacement of fluorescent peptide probe from MDM2 (MDM2 [2]): efficiently displaced
- anisotropy (MDM2 [2]; Log[Macrocycle] M -4.0): 25 and 23 and 22
- anisotropy (MDM2 [2]; Log[Macrocycle] M -4.3): 31 and 28 and 30
- anisotropy (MDM2 [2]; Log[Macrocycle] M -4.6): 33 (2×) and 32
- anisotropy (MDM2 [2]; Log[Macrocycle] M -4.9): 38 and 32 and 40
- anisotropy (MDM2 [2]; Log[Macrocycle] M -5.2): 47 and 39 and 44
- anisotropy (MDM2 [2]; Log[Macrocycle] M -5.5): 51 and 45 and 47
- anisotropy (MDM2 [2]; Log[Macrocycle] M -5.8): 62 and 52 and 55
- anisotropy (MDM2 [2]; Log[Macrocycle] M -6.1): 69 and 59 and 62
- anisotropy (MDM2 [2]; Log[Macrocycle] M -6.4): 80 and 67 and 64
- anisotropy (MDM2 [2]; Log[Macrocycle] M -6.7): 83 and 68 and 74
- anisotropy (MDM2 [2]; Log[Macrocycle] M -7.0): 78 and 72 and 75
- anisotropy (MDM2 [2]; Log[Macrocycle] M -7.3): 86 and 75 and 80
- anisotropy (MDM2 [2]; Log[Macrocycle] M -7.6): 89 and 77 and 85
- anisotropy (MDM2 [2]; Log[Macrocycle] M -7.9): 88 and 77 and 82
- anisotropy (MDM2 [2]; Log[Macrocycle] M -8.2): 89 and 77 and 85
- anisotropy (MDM2 [2]; Log[Macrocycle] M -8.5): 91 and 80 and 78
- Kd (MDM2 [3]): 600 ± 300 nM

Structure (SMILES): O=C(/C=C/c1ccccc1)NC[C@@H]1NC(=O)[C@H]2CCCN(C2)C(=O)CCSSCCNC(=O)[C@H](Cc2c[nH]c3ccccc23)NC1=O [M8]
- Fraction bound (fraction fluorescent probe displaced) (MDM2 [1]; [7]): 0.08
- Fraction bound (fraction fluorescent probe displaced) (MDM2 [1]; [8]): 0.25
- Fraction bound (fraction fluorescent probe displaced) (MDM2 [1]; [9]): 0.02
- Fraction bound (fraction fluorescent probe displaced) (MDM2 [1]; [10]): -0.000869
- Fraction bound (fraction fluorescent probe displaced) (MDM2 [1]; [11]): -0.0422
- Fraction bound (fraction fluorescent probe displaced) (MDM2 [1]; [12]): -0.000869
- Fraction bound (fraction fluorescent probe displaced) (MDM2 [1]; [13]): 0.02
- Fraction bound (fraction fluorescent probe displaced) (MDM2 [1]; [14]): 0.02
- Fraction bound (fraction fluorescent probe displaced) (MDM2 [1]; [15]): 0.04
- Fraction bound (fraction fluorescent probe displaced) (MDM2 [1]; [16]): -0.0422
- Fraction bound (fraction fluorescent probe displaced) (MDM2 [1]; [17]): -0.0422
- Fraction bound (fraction fluorescent probe displaced) (MDM2 [1]; [18]): -0.0216
- Fraction bound (fraction fluorescent probe displaced) (MDM2 [1]; [19]): 0.37
- Fraction bound (fraction fluorescent probe displaced) (MDM2 [1]; [20]): 0.04
- Fraction bound (fraction fluorescent probe displaced) (MDM2 [1]; [21]): -0.13
- Fraction bound (fraction fluorescent probe displaced) (MDM2 [1]; [22]): -0.0216
- Fraction bound (fraction fluorescent probe displaced) (MDM2 [1]; [23]): -0.0216
- Fraction bound (fraction fluorescent probe displaced) (MDM2 [1]; [24]): -0.21
- Fraction bound (fraction fluorescent probe displaced) (MDM2 [1]; [25]): -0.17
- Fraction bound (fraction fluorescent probe displaced) (MDM2 [1]; [26]): -0.23
- IC50 (MDM2 [2]; [27]): 900 nM
- IC50 (MDM2 [2]; [28]): 1000 nM
- IC50 (MDM2 [2]; [29]): 840 nM
- IC50 (MDM2 [2]; [30]): 860 nM
- displacement of fluorescent peptide probe from MDM2 (MDM2 [2]): efficiently displaced
- anisotropy (MDM2 [2]; Log[Macrocycle] M -4.0): 50 and 44 and 45
- anisotropy (MDM2 [2]; Log[Macrocycle] M -4.3): 50 and 43 and 47
- anisotropy (MDM2 [2]; Log[Macrocycle] M -4.6): 52 and 45 and 51
- anisotropy (MDM2 [2]; Log[Macrocycle] M -4.9): 53 and 50 and 49
- anisotropy (MDM2 [2]; Log[Macrocycle] M -5.2): 59 and 42 and 53
- anisotropy (MDM2 [2]; Log[Macrocycle] M -5.5): 61 and 53 and 54
- anisotropy (MDM2 [2]; Log[Macrocycle] M -5.8): 67 and 55 and 59
- anisotropy (MDM2 [2]; Log[Macrocycle] M -6.1): 73 and 65 and 68
- anisotropy (MDM2 [2]; Log[Macrocycle] M -6.4): 80 and 68 and 73
- anisotropy (MDM2 [2]; Log[Macrocycle] M -6.7): 85 and 73 and 80
- anisotropy (MDM2 [2]; Log[Macrocycle] M -7.0): 87 (2×) and 82
- anisotropy (MDM2 [2]; Log[Macrocycle] M -7.3): 92 and 79 and 84
- anisotropy (MDM2 [2]; Log[Macrocycle] M -7.6): 94 and 80 and 85
- anisotropy (MDM2 [2]; Log[Macrocycle] M -7.9): 90 and 80 and 83
- anisotropy (MDM2 [2]; Log[Macrocycle] M -8.2): 94 and 77 and 85
- anisotropy (MDM2 [2]; Log[Macrocycle] M -8.5): 93 and 83 (2×)
- displacement of fluorescent probe from MDM2 (MDM2 [4]): 21%

Structure (SMILES): CCCCCCOC(=O)NC(=N)c1ccc(NCc2nc3cc(C(=O)N(CCC(=O)OCC)c4ccccn4)ccc3n2C)cc1 [dabigatran etexilate]
- oral availability [5]: < 6.5%
